According to patent US20090306386A1, “Plant Extract Obtained by an Extraction Method by Means of Solvents of Plant Origin” (priority 2005, published 2009):

Tested on: xanthine/xanthine oxidase
Experiment: antioxidant activity, xanthine/xanthine oxidase test
Format: biochemical
Conditions: modified method of Rice Evans et al. and Masaki et al., n=10
Excerpt: The antioxidant activity of the turmeric extract obtained with solvent No. 2 (d-limonene) were studied using the xanthine/xanthine oxidase test according to the modified method of Rice Evans et al. (Techniques in free radical research, 1991, Elsevier, Paris) and Masaki et al. (Antioxygen scavenging activity of plant extracts, Biol. Pharm. Bull., 1995, 18 (1), 162-166).

Oc1ncnc2[nH]ncc12 [allopurinol]
antioxidant activity IC50: 0.06%
